Measurements as given in paper PMC9016025, “Translational imaging of the fibroblast activation protein (FAP) using the new ligand [^68Ga]Ga-OncoFAP-DOTAGA” (European Journal of Nuclear Medicine and Molecular Imaging, 2021).

Experiments:
[1] = test system: subcutaneous HT1080 (FAP−) and HT1080-hFAP (FAP+) tumors; assay: Pharmacokinetic modeling (2TCM, Patlak) of small animal PET with extracorporeal arterial input function; assay type: in vivo, mouse; set-up: Vs (distribution volume) / k1 / k2 / k3 / k4: unit not given here; settings: geometric mean ± SD; for Vs (distribution volume) / k1 / k2 / k3 / k3/k4 / k4: 2TCM
Method: Before PET/MRI at day 12, p.i. mice received surgery to establish an extracorporeal circulation shunting of the blood from the femoral artery to the tail vein or contralateral femoral vein as described previously. At 40 cm from the femoral artery, the shunt (0.3 mm inner diameter silicon; total extracorporeal volume 56.6 μL) was led through a Twilite coincidence detector. Acquired blood activity curves were calibrated with a separately measured calibration factor for ^68Ga according to vendor’s instructions. The curves were corrected for delay and dispersion based on a numerical deconvolution, using dispersion kernels derived from measuring step functions at defined pumping speeds. Standard 2-tissue compartmental (2TCM) pharmacokinetic (PK) modeling and Patlak analysis was performed for the triceps muscle, and FAP^− and FAP^+ tumors using PMOD version 3.703 (PMOD Technologies LLC) and was based on mean PET VOI time activity curves and Twilite-based extracorporeal arterial input functions (AIF). AIF plasma fraction was calculated based on direct hematocrit measurements after imaging (StatStrip® Hb/Hct, Nova Biomedical).

[2] = test system: subcutaneous HT1080 (FAP−) and HT1080-hFAP (FAP+) tumors; assay: Dynamic and late static small animal PET/MRI in tumor-bearing mice; assay type: in vivo, mouse
Method: Tumor cells (10^6 cells in 50 μL saline) were implanted subcutaneously in the shoulders of NMRI mice with HT1080 wildtype (FAP^−) in one shoulder and with stably transfected human FAP-expressing HT1080 cells (FAP^+) in the contralateral shoulder. Cells were kindly provided by U. Haberkorn, University of Heidelberg. At day 11 after implantation, mice received whole-body PET/MRI (1 T Mediso nanoScan) imaging with list mode PET for 60 min and additional non-contrast-enhanced anatomic, coronal T1-weighted MRI, followed by late static PET/MRI imaging 180 min p.i. Either ^68Ga-OncoFAP or ^68Ga-FAPI-46 (n = 6 each) was injected into the tail vein with a syringe pump at 1000 μL/min in a volume of 100 μL 30 s after the start of PET. At the next day (day 12 after implantation), the same mice were injected with the respective other FAP-tracer and received identical dynamic PET/MRI for 60 min. Sixty minutes p.i., mice were sacrificed under deep narcosis and organs and body fluids were harvested, weighed, and γ-counted. All involved measuring hardware (dose calibrator ISOMED 2010, automatic γ-counter PERKIN ELMER WALAC 2480, Twilite coincidence detector Swisstrace, PET/MRI) were cross-calibrated for ^68Ga. Overall, 3 scans were rejected, because of extravasation (day 11 OncoFAP), inability of i.v. access (day 12 FAPI-46), and insufficient radioactivity (day 12 FAPI-46), respectively. The resulting injected amounts of radioactivity for the remaining 11 ^68Ga-OncoFAP scans and 10 ^68Ga-FAPI-46 scans were 19.2 ± 4.4 MBq and 18.2 ± 4.8 MBq, respectively.
Dynamic PET scans were reconstructed in time frames of 1 × 30 s, 5 × 12 s, 5 × 60 s, 4 × 300 s, 2 × 600 s, and 1 × 810 s. Frames 12 and 18 and the late scan are referred to as (rounded) 10 min, 1 h, and 3 h throughout the manuscript. Volume of interests (VOI) of tumors and representative organs were defined on anatomic MRI. Resulting tumor volumes for ^68Ga-OncoFAP scans for FAP^+ and FAP^− tumors were 0.4 ± 0.36 and 0.22 ± 0.15, and for FAPI-46 scans were 0.34 ± 0.20 and 0.2 ± 0.17 (n.s. different between the two tracers).

CN(CCCN1CCN(C(=O)CN2CCN(CC(=O)[O-])CCN(CC(=O)[O-])CCN(CC(=O)[O-])CC2)CC1)c1ccc2nccc(C(=O)NCC(=O)N3CC(F)(F)C[C@H]3C#N)c2c1.[68Ga+3] [^68Ga-FAPI-46, [^68Ga]Ga-FAPI-46]
Vs (distribution volume) ([1]; tumor FAP+): 0.25 ± 0.29
k1 ([1]; tumor FAP+): 0.042 ± 0.012
k2 ([1]; tumor FAP+): 0.298 ± 0.038
k3 ([1]; tumor FAP+): 0.029 ± 0.024
k3/k4 ([1]; tumor FAP+): 1.77 ± 2.74
k4 ([1]; tumor FAP+): 0.017 ± 0.011
Vs (distribution volume) ([1]; tumor FAP+, listed as FAPI-46): 0.246 ± 0.287
k3/k4 ([1]; tumor FAP+, listed as FAPI-46): 1.770 ± 2.737
Vs (distribution volume) ([1]; tumor FAP−): 0.121 ± 0.227
k1 ([1]; tumor FAP−): 0.049 ± 0.003
k2 ([1]; tumor FAP−): 0.323 ± 0.115
k3 ([1]; tumor FAP−): 0.012 ± 0.031
k3/k4 ([1]; tumor FAP−): 0.801 ± 0.908
k4 ([1]; tumor FAP−): 0.015 ± 0.038
Patlak intercept ([1]; tumor FAP+): 0.176 ± 0.035
Patlak slope ([1]; tumor FAP+): 0.002 ± 0.001
Patlak intercept ([1]; tumor FAP−): 0.207 ± 0.019
Patlak slope ([1]; tumor FAP−): 0.000 ± 0.000
SUVmean blood ([2]; small animal PET 10 min p.i.): 0.52 ± 0.09
SUVmean kidney ([2]; small animal PET 10 min p.i.): 1.43 ± 0.88
SUVmean liver ([2]; small animal PET 10 min p.i.): 0.57 ± 0.17
SUVmean muscle ([2]; small animal PET 10 min p.i.): 0.35 ± 0.07
SUVmean spleen ([2]; small animal PET 10 min p.i.): 0.40 ± 0.19
SUVmean tumor FAP+ ([2]; small animal PET 10 min p.i.): 0.40 ± 0.07
SUVmean tumor FAP- ([2]; small animal PET 10 min p.i.): 0.39 ± 0.07
SUVmean blood ([2]; small animal PET 1 h p.i.): 0.19 ± 0.07
SUVmean kidney ([2]; small animal PET 1 h p.i.): 0.54 ± 0.54
SUVmean liver ([2]; small animal PET 1 h p.i.): 0.28 ± 0.16
SUVmean muscle ([2]; small animal PET 1 h p.i.): 0.08 ± 0.04
SUVmean spleen ([2]; small animal PET 1 h p.i.): 0.15 ± 0.07
SUVmean tumor FAP+ ([2]; small animal PET 1 h p.i.): 0.25 ± 0.06
SUVmean tumor FAP- ([2]; small animal PET 1 h p.i.): 0.10 ± 0.05
SUVmean kidney ([2]; small animal PET 3 h p.i.): 0.07 ± 0.02
SUVmean liver ([2]; small animal PET 3 h p.i.): 0.28 ± 0.19
SUVmean muscle ([2]; small animal PET 3 h p.i.): 0.02 ± 0.00
SUVmean spleen ([2]; small animal PET 3 h p.i.): 0.09 ± 0.06
SUVmean tumor FAP+ ([2]; small animal PET 3 h p.i.): 0.16 ± 0.06
SUVmean tumor FAP- ([2]; small animal PET 3 h p.i.): 0.02 ± 0.01
